# Residues, ends and D or L forms follow the SMILES beside them. *: point of attachment. Palmitoyl = CCCCCCCCCCCCCCCC(=O)*
# Test system: human dermal fibroblasts (HDF)
# Experiment: Cytotoxicity, MTS cell viability assay
# Format: cell-based
# Conditions: HDF, concentrations higher than 20 μM, 24 h
# Method: To evaluate the cytotoxicity of the peptides, human dermal fibroblasts (HDF) were treated for 24 h, and cell viability was determined via MTS assays (FIG. 13).
# Human dermal fibroblast cells (HDF, Detroit 551, ATCC #CCL-110) were cultured in Dulbecco's modified Eagle medium (DMEM; Fisher, Pittsburgh, PA) supplemented with 10% fetal bovine serum (FBS) and 1% penicillin/streptomycin for 24 h. All cells were cultured to 90% confluence in a 37° C., humidified, 5% CO2/95% air environment. Cells at passage numbers of 4-7 were used in these experiments.
# The MTS cell viability assay kit (Promega, Madison, WI, USA) was used to determine cytotoxicity of the peptides. First, HDF cells were seeded on a 96-well plate at a cell density of 5,000 cells/well (equal to 15,385 cells/cm^2), and were incubated overnight for cell adhesion. After overnight incubation, the cell medium in each well was replaced by 100 μL of cell culture medium containing various concentrations of peptides (20 μM to 100 μM). The control samples were cells incubated in cell culture medium only. After 24 h, the treatment medium in each well was removed. The cells were washed with phosphate buffered saline (PBS, pH=7.4, Fisher, PA, USA) and 100 μL of fresh cell culture medium was added to each well, followed by the addition of 20 μL of the MTS reagent. After the cells were incubated for 2.5 h, the absorbance was measured at a wavelength of 490 nm by a spectrophotometer (SpectraMax M3, Molecular Devices, Molecular Devices, Sunnyvale, CA, USA). To estimate the cell numbers in each well, a standard curve expressing the linear correlation between different cell densities and optical densities (R^2>0.95) was plotted, and the cell numbers were determined with this standard curve from the OD490 value recorded in each sample. The cell viability of each sample was calculated by: Cell viability=[(cell density per mL of treated sample)/(cell density per mL of control sample)]×100%. Data were expressed by standard error of the mean (±S.E.M.) and N=3, *p<0.05 compared with control samples.
structure (smiles),measurement,value
"CCCCCCCCCCCCCCCC(=O)N[C@H](C(=O)N[C@H](C(=O)N[C@H](C(=O)N[C@H](C(=O)N[C@@H](CCCCN)C(=O)N[C@@H](CCCCN)C(=O)N[C@@H](CCCCN)C(=O)N[C@@H](CCCCN)C(=O)O)C(C)C)C(C)C)C(C)C)C(C)C [CVK-PA, C16-V4K4 (SEQ ID NO: 1), reference compound] (Palmitoyl-VVVVKKKK-OH)",cell death,over 40%
